Consider twelve compounds from ChEMBL document CHEMBL3045884, “Synthesis, characterization, anticancer, and antioxidant activity of some new thiazolidin-4-ones in MCF-7 cells” (Med Chem Res, 2013).

Assay [1] concerns MCF7. Description: Anticancer activity against Homo sapiens (human) MCF-7 cells assessed as cell survival at 10 ug/ml after 24 hr by MTT assay (reference value: 100%). Conditions: MCF7, 24 h, read-out: Survival. Format: functional. For orientation: Tetrazolium assays rely on reduction of a dye to a coloured formazan, in cell work by metabolically active cells.
The test system of assay [2] is MCF7. Description: Anticancer activity against Homo sapiens (human) MCF-7 cells assessed as cell survival at 100 ug/ml after 24 hr by MTT assay (reference value: 100%). Conditions: MCF7, 24 h, read-out: Survival. Format: functional.
The subject of assay [3] is MCF7. Description: Anticancer activity against Homo sapiens (human) MCF-7 cells assessed as cell survival at 1 ug/ml after 24 hr by MTT assay (reference value: 100%). Format: functional. Conditions: MCF7, 24 h, read-out: Survival.
The subject of assay [4] is MCF7. The assay is described as follows: Anticancer activity against Homo sapiens (human) MCF-7 cells assessed as cell survival at 0.1 ug/ml after 24 hr by MTT assay (reference value: 100%). Format: functional. Conditions: MCF7, 24 h, read-out: Survival.
For assay [5], the system named is MCF7. The assay is described as follows: Anticancer activity against Homo sapiens (human) MCF-7 cells assessed as inhibition of cell survival after 24 hr by MTT assay. Format: functional, cell-based. Conditions: MCF7, 24 h.
Assay [6] has as its system MCF7. The assay is described as follows: Induction of apoptotic DNA fragmentation in Homo sapiens (human) MCF-7 cells assessed as formation of comets at 54 ug/ml after 24 hr by comet assay. Format: functional, cell-based.
Assay [7] deals with MCF7. Description: Induction of apoptotic DNA fragmentation in Homo sapiens (human) MCF-7 cells assessed as increase in tail length at 0.1 uM after 24 hr by comet assay. The class given is functional, cell-based.
Assay [8] deals with MCF7. The assay is described as follows: Induction of apoptotic DNA fragmentation in Homo sapiens (human) MCF-7 cells assessed as increase in olive tail moment at 0.1 uM after 24 hr by comet assay. Format: functional, cell-based.
Assay [9] relates to MCF7. The assay is described as follows: Induction of apoptotic DNA fragmentation in Homo sapiens (human) MCF-7 cells assessed as formation of comets at 50 ug/ml after 24 hr by comet assay. The class given is functional, cell-based.
For assay [10], the system named is Radical scavenging activity. The assay is described as follows: Antioxidant activity assessed as DPPH radical scavenging activity after 20 min by ELISA plate reader analysis. The class given is functional.
For assay [11], the system named is MCF7. Description: Induction of apoptotic DNA fragmentation in Homo sapiens (human) MCF-7 cells assessed as increase in olive tail moment after 24 hr by comet assay. Format: functional, cell-based.
Assay [12] is described as follows: Antioxidant activity assessed as ABTS radical scavenging activity after 20 min by ELISA plate reader analysis. The class given is functional.
Assay [13] concerns MCF7. Description: Induction of apoptotic DNA fragmentation in Homo sapiens (human) MCF7 cells assessed as increase in tail length after 24 hr by comet assay. Format: functional, cell-based.

Values after ≈ are worked out from the molar mass of the structure shown. Active and inactive are the calls of the source. No cut-off for these calls is given here. Some results are limits rather than exact numbers.

The term IC50 denotes the concentration that inhibits the measured activity by half. Consider `Cc1ccccc1OCc1nnc(S)n1N1C(=O)CSC1c1c[nH]nc1-c1ccc(F)cc1` (stereo not given), for which the viability at 10 µg/mL in the assay with MCF7 [1] is 92.5%. For the same compound, the viability at 100 µg/mL in the assay with MCF7 [2] was 62.1%. Besides, in the assay with MCF7 [3], the viability at 1 µg/mL amounted to 83.1%. In addition, in the assay with MCF7 [4], the viability at 0.1 µg/mL worked out at 81.4%. For the same compound, in the assay with MCF7 [5], the IC50 is > 100 µg/mL.
The corresponding values for `COc1ccc(-c2n[nH]cc2C2SCC(=O)N2n2c(S)nnc2COc2ccccc2)cc1` (stereo not given) are 96.8%, 46.5%, 100%, 100% and 85 µg/mL (≈ 177 µM).
In the case of `COc1cccc2c1C(=O)c1c(O)c3c(c(O)c1C2=O)C[C@@](O)(C(=O)CO)C[C@@H]3O[C@H]1C[C@H](N)[C@H](O)[C@H](C)O1`, the outcome with MCF7 [6], in the assay on MCF7 [7] and in the assay with MCF7 [8] was Active.
As to `Cc1ccc(OCc2nnc(S)n2N2C(=O)CSC2c2c[nH]nc2-c2ccc(F)cc2)cc1` (stereo not given), the viability at 10 µg/mL in the assay with MCF7 [1] was 87.5%. Further, the viability at 100 µg/mL in the assay with MCF7 [2] was 71.4%. Moreover, the viability at 1 µg/mL in the assay with MCF7 [3] is 74.7%. Moreover, the viability at 0.1 µg/mL in the assay with MCF7 [4] worked out at 80.8%. In the assay with MCF7 [5], the IC50 was > 100 µg/mL.
As to `O=C1CSC(c2c[nH]nc2-c2ccc(Cl)cc2)N1n1c(S)nnc1COc1cccc2ccccc12` (stereo not given), in the assay on MCF7 [1], the viability at 10 µg/mL is 60.3%. In addition, the viability at 100 µg/mL in the assay on MCF7 [2] was 51.8%. For the same compound, the viability at 1 µg/mL in the assay with MCF7 [3] turned out to be 70.5%. For the same compound, the viability at 0.1 µg/mL with MCF7 [4] worked out at 101%. Moreover, in the assay with MCF7 [5], the IC50 is 100 µg/mL (≈ 187 µM).
`O=C1CSC(c2c[nH]nc2-c2ccc(F)cc2)N1n1c(S)nnc1COc1ccccc1` (stereo not given): the viability at 10 µg/mL with MCF7 [1] amounted to 76.5%. Moreover, the viability at 100 µg/mL in the assay with MCF7 [2] was 33.6%. The result with MCF7 [9] was Active. In the assay with MCF7 [3], the viability at 1 µg/mL was 69.4%. In addition, the viability at 0.1 µg/mL in the assay on MCF7 [4] is 65.9%. The IC50 amounted to 27.16 µg/mL (≈ 58 µM) in [10], 30 µg/mL (≈ 64 µM) with MCF7 [5] and 143.67 µg/mL (≈ 307 µM) in assay [12]. The Activity entry in the assay with MCF7 [11] and with MCF7 [13] was “Dose-dependent effect” each time.
Turning to `COc1ccc(-c2n[nH]cc2C2SCC(=O)N2n2c(S)nnc2COc2ccccc2C)cc1` (stereo not given), the viability at 10 µg/mL with MCF7 [1] stood at 84.7%. For the same compound, the viability at 100 µg/mL in the assay on MCF7 [2] amounted to 25.4%. Moreover, the outcome in the assay on MCF7 [9] was Active. Further, the viability at 1 µg/mL in the assay on MCF7 [3] was 87%. Moreover, the viability at 0.1 µg/mL with MCF7 [4] was 81.5%. Moreover, the results for the IC50 (in [10]; in the assay with MCF7 [5]; in [12]) were 46.95 µg/mL (≈ 94.9 µM), 29 µg/mL (≈ 58.6 µM) and 165.78 µg/mL (≈ 335 µM), respectively. Moreover, the Activity entry in the assay on MCF7 [11] and in the assay on MCF7 [13] was “Dose-dependent effect” throughout.
`Cc1ccccc1OCc1nnc(S)n1N1C(=O)CSC1c1c[nH]nc1-c1ccc(Cl)cc1` (stereo not given): the viability at 10 µg/mL in the assay on MCF7 [1] turned out to be 67.6%. In addition, the viability at 100 µg/mL in the assay on MCF7 [2] is 13.2%. In addition, in the assay with MCF7 [9], the outcome was Active. Also, the viability at 1 µg/mL with MCF7 [3] is 80.7%. For the same compound, the viability at 0.1 µg/mL with MCF7 [4] came to 70%. For the same compound, the IC50 in [10] amounted to 31.52 µg/mL (≈ 63.2 µM); in the assay with MCF7 [5] it was 22 µg/mL (≈ 44.1 µM); in assay [12], 73.03 µg/mL (≈ 146 µM). Moreover, the Activity entry in the assay with MCF7 [11] and with MCF7 [13] was “Dose-dependent effect” each time.
`COc1ccc(-c2n[nH]cc2C2SCC(=O)N2n2c(S)nnc2COc2ccc(C)cc2)cc1` (stereo not given): in the assay on MCF7 [1], the viability at 10 µg/mL was 90.2%. In addition, the viability at 100 µg/mL in the assay with MCF7 [2] worked out at 43.7%. The viability at 1 µg/mL in the assay with MCF7 [3] came out at 95.4%. For the same compound, the viability at 0.1 µg/mL with MCF7 [4] stood at 95%. In addition, in the assay with MCF7 [5], the IC50 stood at 78 µg/mL (≈ 158 µM).
With `O=C1CSC(c2c[nH]nc2-c2ccc(Cl)cc2)N1n1c(S)nnc1COc1ccc2ccccc2c1` (stereo not given), in the assay with MCF7 [1], the viability at 10 µg/mL came to 81.4%. The viability at 100 µg/mL with MCF7 [2] amounted to 50.7%. The viability at 1 µg/mL with MCF7 [3] is 100%. Also, the viability at 0.1 µg/mL in the assay on MCF7 [4] worked out at 99.7%. The IC50 in the assay on MCF7 [5] stood at 100 µg/mL (≈ 187 µM).
The corresponding values for `O=C1CSC(c2c[nH]nc2-c2ccc(F)cc2)N1n1c(S)nnc1COc1ccc2ccccc2c1` (stereo not given) are 99.8%, 96.5%, 100%, 100% and > 100 µg/mL.
As for `O=C1O[C@H]([C@@H](O)CO)C(O)=C1O` [ASCORBIC ACID], the values for the IC50 in assay [10] and in assay [12] were 18.74 µg/mL (≈ 106 µM) and 31.53 µg/mL (≈ 179 µM), respectively.
